The values that follow come from patent US9593107B2, “Dihydroquinoline-2-one derivatives” (Hoffmann-La Roche Inc., priority 2014, dated 2017).

What is called EC50 is the concentration that produces a half-maximal response. A low value points to an effect from little substance.

In one assay the target is T1, human CYP11B2 (Homo sapiens, UniProt P19099).
T1 construct: expressed in transfected cells
T1 sequence (P19099 25-503): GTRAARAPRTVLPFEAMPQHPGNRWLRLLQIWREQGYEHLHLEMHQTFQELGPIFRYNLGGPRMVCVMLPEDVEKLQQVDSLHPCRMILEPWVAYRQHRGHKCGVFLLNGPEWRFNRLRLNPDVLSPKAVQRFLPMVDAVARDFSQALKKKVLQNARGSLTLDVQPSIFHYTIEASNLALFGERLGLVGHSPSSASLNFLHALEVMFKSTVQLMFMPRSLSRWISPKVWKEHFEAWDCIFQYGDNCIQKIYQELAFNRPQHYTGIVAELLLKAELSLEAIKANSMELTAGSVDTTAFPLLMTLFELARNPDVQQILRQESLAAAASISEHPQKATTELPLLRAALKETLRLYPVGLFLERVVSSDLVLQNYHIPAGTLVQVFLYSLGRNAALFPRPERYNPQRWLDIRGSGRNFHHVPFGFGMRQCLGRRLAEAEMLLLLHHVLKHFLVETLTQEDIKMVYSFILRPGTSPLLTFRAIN
As to the kind of experiment: G-402 cellular enzyme assay, human CYP11B2 (aldosterone release, HTRF). It is filed as cell-based. To be noted: G-402 cells expressing human CYP11B2; 1 μM Deoxycorticosterone. An excerpt: (§1) Herein we identified the use of the G-402 cell line as a host cell to ectopically express (transiently or stably) enzymes of the CYP11 family. Specifically we developed stable G-402 cells expressing ectopically human CYP11B1, human CYP11B2, human CYP11A1, cynmolgus CYP11B1 or cynomolgus CYP11B2 enzyme activity. Importantly the identified cell line G-402 expresses co-factors (adrenodoxin and adrenodoxin reductase) important for the activity of the CYP11 family and no relevant enzyme activity of the CYP11 family (in comparison to H295R cells) was detected in these cells. Therefore the G-402 cell line is uniquely suited as a host cell for the ectopic expression of enzymes from the CYP11 family.
(§2) The expression plasmids contains the ORF for either human/cyno CYP11B1 or CYP11B2 under the control of a suitable promoter (CMV-promoter) and a suitable resistance marker (neomycin). Using standard techniques the expression plasmid is transfected into G-402 cells and these cells are then selected for expressing the given resistance markers. Individual cell-clones are then selected and assessed for displaying the desired enzymatic activity using 11-Deoxycorticosterone (Cyp11B2) or 11-Deoxycortisol (Cyp11B1) as a substrate.
(§3) G-402 cells expressing CYP11 constructs were established as described above and maintained in McCoy's 5a Medium Modified, ATCC Catalog No. 30-2007 containing 10% FCS and 400 μg/ml G418 (Geneticin) at 37° C. under an atmosphere of 5% CO2/95% air.
(§4) Cellular enzyme assays were performed in DMEM/F12 medium containing 2.5% charcoal treated FCS and appropriate concentration of substrate (0.3-10 uM 11-Deoxycorticosterone, 11-Deoxycortisol or Corticosterone). For assaying enzymatic activity, cells were plated onto 96 well plates and incubated for 16 h. An aliquot of the supernatant is then transferred and analyzed for the concentration of the expected product (Aldosterone for CYP11B2; Cortisol for CYP11B1). The concentrations of these steroids can be determined using HTRF assays from CisBio analyzing either Aldosterone or Cortisol.
(§5) Inhibition of the release of produced steroids can be used as a measure of the respective enzyme inhibition by test compounds added during the cellular enzyme assay. The dose dependent inhibition of enzymatic activity by a compound is calculated by means of plotting added inhibitor concentrations (x-axes) vs. measured steroid/product level (y-axes). The inhibition is then calculated by fitting the following 4-parameter sigmoidal function (Morgan-Mercer-Flodin (MMF) model) to the raw data points using the least squares method:
(§6) [formula] wherein, A is the maximum y value, B is the EC50 factor determined using XLFit, C is the minimum y value and D is the slope value.
(§7) EC50 values for compounds claimed herein were tested with the G402-based assay system described. Cyp11B2 enzyme activity was tested in presence of 1 μM Deoxycorticosterone and variable amounts of inhibitors; Cyp11B1 enzyme activity was tested in presence of 1 μM Deoxycortisol and variable amounts of inhibitors.
(In general: TR-FRET usually uses a lanthanide donor and a delayed reading to cut background.)

For another assay, the target named is T2, human CYP11B1 (Homo sapiens, UniProt P15538).
T2 construct: expressed in transfected cells
T2 sequence (P15538 25-503): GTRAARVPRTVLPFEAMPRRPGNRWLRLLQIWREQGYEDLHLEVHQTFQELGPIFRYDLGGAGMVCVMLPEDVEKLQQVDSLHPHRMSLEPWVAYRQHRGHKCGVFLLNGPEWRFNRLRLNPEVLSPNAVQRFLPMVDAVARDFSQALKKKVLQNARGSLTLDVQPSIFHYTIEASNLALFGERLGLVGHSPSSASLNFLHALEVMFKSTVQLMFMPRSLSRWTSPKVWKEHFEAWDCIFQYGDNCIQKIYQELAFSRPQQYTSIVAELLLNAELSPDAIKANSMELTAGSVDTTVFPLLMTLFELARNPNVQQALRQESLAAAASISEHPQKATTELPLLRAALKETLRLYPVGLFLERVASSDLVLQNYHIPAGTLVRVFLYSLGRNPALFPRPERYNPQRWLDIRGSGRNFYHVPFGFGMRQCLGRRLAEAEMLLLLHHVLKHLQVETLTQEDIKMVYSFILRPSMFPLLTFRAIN
Description: G-402 cellular enzyme assay, human CYP11B1 (cortisol release, HTRF). The class given is cell-based. To be noted: G-402 cells expressing human CYP11B1; 1 μM Deoxycortisol.
Text: as §1, §2, §3, §4, §5, §6, §7

The test system of assay [1] is rats with experimental heart failure. To be noted: rat, in vivo; cited from earlier work.
The test system of assay [2] is rat model of chronic kidney disease. To be noted: cited from earlier work; for cardiac and aortic medial hypertrophy / renal effects of angiotensin II and high salt (albuminuria, azotemia, renovascular hypertrophy, glomerular injury, PAI-1 and osteopontin mRNA, tubulointerstitial fibrosis): rat, in vivo.
The subject of assay [3] is patients with primary aldosteronism. To be noted: oral; cited from earlier work.

Regarding `CN1C(=O)CCc2cc(-c3cncc(Cn4c(Cl)cccc4=O)c3)c(F)cc21` [Example 22, 6-[5-(6-Chloro-2-oxo-2H-pyridin-1-ylmethyl)-pyridin-3-yl]-7-fluoro-1-methyl-3,4-dihydro-1H-quinolin-2-one], the concentration for a half-maximal effect (EC50) stood at 0.2 nM on human CYP11B2 and 7.1 nM on human CYP11B1.
For `Cc1cccc(=O)n1Cc1cncc(-c2cc3c(cc2F)N(C)C(=O)CC3)c1` [Example 23, 7-Fluoro-1-methyl-6-[5-(6-methyl-2-oxo-2H-pyridin-1-ylmethyl)-pyridin-3-yl]-3,4-dihydro-1H-quinolin-2-one], the EC50 on human CYP11B2 was 12.5 nM; on human CYP11B1, 3130 nM.
Take `Cc1c(Cn2c(C)cccc2=O)cncc1-c1cc2c(cc1F)N(C)C(=O)CC2` [Example 24, 7-Fluoro-1-methyl-6-[4-methyl-5-(6-methyl-2-oxo-2H-pyridin-1-ylmethyl)-pyridin-3-yl]-3,4-dihydro-1H-quinolin-2-one]: the EC50 on human CYP11B2 turned out to be 16.5 nM; at human CYP11B1, 2140 nM.
The corresponding values for `Cc1c(Cn2c(Cl)cccc2=O)cncc1-c1cc2c(cc1F)N(C)C(=O)CC2` [Example 25, 6-[5-(6-Chloro-2-oxo-2H-pyridin-1-ylmethyl)-4-methyl-pyridin-3-yl]-7-fluoro-1-methyl-3,4-dihydro-1H-quinolin-2-one] are 2.1 nM and 234 nM.
The corresponding values for `Cc1c(Cn2cccc(F)c2=O)cncc1-c1cc2c(cc1F)N(C)C(=O)CC2` [Example 26, 7-Fluoro-6-[5-(3-fluoro-2-oxo-2H-pyridin-1-ylmethyl)-4-methyl-pyridin-3-yl]-1-methyl-3,4-dihydro-1H-quinolin-2-one] are 1 nM and 44.8 nM.
On the same counts, the results for `Cc1c(Cn2c(F)cccc2=O)cncc1-c1cc2c(cc1F)N(C)C(=O)CC2` [Example 27, 7-Fluoro-6-[5-(6-fluoro-2-oxo-2H-pyridin-1-ylmethyl)-4-methyl-pyridin-3-yl]-1-methyl-3,4-dihydro-1H-quinolin-2-one] are 1 nM and 91.3 nM.
Regarding `N#Cc1ccc([C@H]2CCCc3cncn32)cc1` [FAD286], in assay [1], the “blood pressure and cardiovascular function and structure” value was “improved”; the “kidney function and morphology” value was “improve”. Besides, the plasma aldosterone result in assay [2] (following 4 weeks of treatment) is reported as “reduced”. Moreover, in assay [2], the “cardiac and aortic medial hypertrophy” value is reported as “attenuated”; the “renal effects of angiotensin II and high salt (albuminuria, azotemia, renovascular hypertrophy, glomerular injury, PAI-1 and osteopontin mRNA, tubulointerstitial fibrosis)” value is listed as “prevented”.
Take `N#Cc1ccc([C@H]2CCc3cncn32)c(F)c1` [LCI699]: in assay [3], the blood pressure result was “mildly decreased”, the circulating aldosterone levels entry was “significantly lower”, the hypokalemia entry is reported as “corrected” and the “selectivity (effects on the glucocorticoid axis)” value was “poor selectivity”.
Take `CC(=O)S[C@@H]1CC2=CC(=O)CC[C@]2(C)[C@H]2CC[C@@]3(C)[C@@H](CC[C@@]34CCC(=O)O4)[C@H]12` [spironolactone]: the aldosterone entry in assay [2] (at 4 and 8 weeks of treatment) is “increased”. Further, in assay [2] (in the aorta and the heart), the “angiotensin II and salt-stimulated PAI-1 mRNA expression” value is “enhanced”. Moreover, in assay [2], the “cardiac and aortic medial hypertrophy” value is listed as “attenuated”; the “renal effects of angiotensin II and high salt (albuminuria, azotemia, renovascular hypertrophy, glomerular injury, PAI-1 and osteopontin mRNA, tubulointerstitial fibrosis)” value is “prevented”.
